Source: patent US8889668B2, “Oxadiazole diaryl compounds” (Merck Serono SA, priority 2007, dated 2014)

Tests used:
S1P1 [1] = target: T1, S1P1 (Homo sapiens (Human), UniProt P21453); experiment: Receptor binding assay, [33P]sphingosine 1-phosphate, membranes from CHO cells expressing S1P1; details: [33P]S1P 25 pM, SPA
Description: (§1) Receptor binding assay: Membranes were prepared from CHO cells expressing S1P1 or S1P3 for use in ligand and […] binding studies. Cells were suspended in 50 mM TRIS, pH 7.4, 2 mM EDTA, 250 mM Sucrose (buffer A) and 1× Complete protease inhibitor cocktail (Roche), and disrupted at 4° C. by nitrogen decompression using a cell disruption bomb (Parr Instrument). Following centrifugation at 1000 RPM for 10 min at 4° C., the supernatant was suspended in buffer A and centrifuged again at 19000 RPM for 60 min at 4° C. The pellet was then suspended in 10 mM HEPES, pH 7.4, 1 mM EDTA, 250 mM Sucrose (Buffer B), and 1× Complete EDTA-free protease inhibitor cocktail and homogenized using a potter. Membranes were flash frozen in liquid nitrogen and stored at −80° C. [33P]sphingosine 1-phosphate (3000 Ci/mmol; American Radiolabeled Chemicals, Inc.) was added to test compounds in DMSO. Membranes and WGA SPA beads (GE Healthcare) were added to give a final volume of 100 μl in 96-well plates with assay concentrations of 25 pM or 10 pM [33P]sphingosine 1-phosphate (respectively for S1P1 or S1P3), 50 mM HEPES, pH 7.5, 5 mM MgCl2, 100 mM NaCl, 0.4% fatty acid-free BSA, 1-5 μg/well of proteins and 100 μg/well of WGA SPA beads. Binding was performed for 60 min at room temperature on a shaker and bound radioactivity was measured on a PerkinElmer 1450 MicroBeta counter. Specific binding was calculated by subtracting remaining radioactivity in the presence of 1000-fold excess of unlabeled S1P. Binding data were analyzed using the GraphPad Prism program.

S1P1 [2] = target: T1, S1P1; experiment: 35S-GTPγS binding, membranes from CHO cells expressing S1P1; type: biochemical; details: 60 min 30° C., read-out: S1P1 GTPgS EC50
S1P3 = S1P3 (Homo sapiens (Human), UniProt Q99500); experiment: 35S-GTPγS binding, membranes from CHO cells expressing S1P3; type: biochemical; details: 60 min 30° C., read-out: S1P3 GTPgs EC50
Chain of S1P3 (Q99500 whole entry, species assumed): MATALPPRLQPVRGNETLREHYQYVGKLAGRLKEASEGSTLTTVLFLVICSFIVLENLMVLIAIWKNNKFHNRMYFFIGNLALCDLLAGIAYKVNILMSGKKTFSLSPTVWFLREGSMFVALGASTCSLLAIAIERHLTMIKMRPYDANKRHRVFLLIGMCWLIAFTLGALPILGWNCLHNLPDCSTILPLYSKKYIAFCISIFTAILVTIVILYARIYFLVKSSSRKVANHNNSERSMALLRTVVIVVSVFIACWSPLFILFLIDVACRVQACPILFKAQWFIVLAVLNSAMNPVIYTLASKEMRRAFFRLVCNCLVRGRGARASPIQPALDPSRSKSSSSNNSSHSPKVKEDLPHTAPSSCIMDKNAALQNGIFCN
Description: as §1
Measurements of ^35S-GTPγS Binding: Membranes (1 to 10 μg protein) prepared as described above, were incubated in 96-well Scintiplates (PerkinElmer) with test compounds diluted in DMSO, in 180 μl of 20 mM HEPES, pH 7.4, 10 mM MgCl2, 2 μg/well Saponin, 0.2% fatty acid free BSA (Assay buffer), 140 mM NaCl and 1.7 μM GDP. The assay was initiated with the addition of 20 μl of 1.5 nM [35S]-GTPγS (1100 Ci/mmol; GE Healthcare) in assay buffer. After 60 min incubation at 30° C. on a shaker, plates were centrifuged for 10 min at 2000 RPM. Supernatant was discarded and membrane bound radioactivity was measured on a PerkinElmer 1450 MicroBeta counter. Triplicate samples were averaged and expressed as % response relative to S1P activation in absence of compound (n=2).

T1 sequence (P21453 whole entry, species assumed): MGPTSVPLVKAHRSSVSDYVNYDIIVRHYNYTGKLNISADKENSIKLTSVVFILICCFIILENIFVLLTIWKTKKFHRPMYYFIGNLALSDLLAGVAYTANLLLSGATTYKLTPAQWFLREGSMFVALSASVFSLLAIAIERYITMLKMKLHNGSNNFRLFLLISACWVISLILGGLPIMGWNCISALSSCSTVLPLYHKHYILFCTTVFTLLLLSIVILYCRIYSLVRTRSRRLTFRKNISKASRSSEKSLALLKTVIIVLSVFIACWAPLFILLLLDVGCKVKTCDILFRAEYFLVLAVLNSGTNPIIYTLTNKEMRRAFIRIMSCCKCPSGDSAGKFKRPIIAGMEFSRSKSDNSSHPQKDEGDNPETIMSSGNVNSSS

Structure (SMILES) | Ki (S1P1 [1]) [nM] | EC50 (S1P1 [2]) [nM] | EC50 (S1P3) [nM]
Cc1ccccc1-c1ccc(-c2nc(-c3ccccc3OC(F)(F)F)no2)cc1C [Compound I21, 5-(2,2′-dimethylbiphenyl-4-yl)-3-[2-(trifluoromethoxy)phenyl]-1,2,4-oxadiazole] | 8 | 4 | > 30000
COc1ccccc1-c1noc(-c2ccc(N3CCCCC3)c([N+](=O)[O-])c2)n1 [Compound I1, 1-{4-[3-(2-methoxyphenyl)-1,2,4-oxadiazol-5-yl]-2-nitrophenyl}piperidine] | 11 | 27 | > 20000
COc1ccccc1-c1noc(-c2ccc(-c3ccccc3C)c(C)c2)n1 [Compound I20, 5-(2,2′-dimethylbiphenyl-4-yl)-3-(2-methoxyphenyl)-1,2,4-oxadiazole] | 16 | 44 | 3210
CC1CCCCN1c1ccc(-c2nc(-c3ccccc3OC(F)(F)F)no2)cc1C(F)(F)F (stereo not drawn) [Compound I34, 2-methyl-1-[4-{3-[2-(trifluoromethoxy)phenyl]-1,2,4-oxadiazol-5-yl}-2-(trifluoromethyl)phenyl]piperidine] | 5 | 6 | > 20000
COc1ccccc1-c1noc(-c2ccc(C3CCCCC3)cc2)n1 [Compound I27, 5-(4-cyclohexylphenyl)-3-(2-methoxyphenyl)-1,2,4-oxadiazole] | 20 | 66 | > 30000
Cc1cc(-c2nc(-c3ccccc3OC(F)(F)F)no2)ccc1-c1cscc1C [Compound I44, 5-[3-methyl-4-(4-methyl-3-thienyl)phenyl]-3-[2-(trifluoromethoxy)phenyl]-1,2,4-oxadiazole] | 5 | 3 | > 20000
COc1ccccc1-c1noc(-c2ccc(CC(C)C)cc2)n1 [Compound I28, 5-(4-isobutylphenyl)-3-(2-methoxyphenyl)-1,2,4-oxadiazole] | 91 | 162 | > 30000
Cc1ccccc1-c1ccc(-c2nc(-c3ccccc3OC(F)(F)F)no2)cc1C(F)(F)F [Compound I55, 5-[2′-methyl-2-(trifluoromethyl)biphenyl-4-yl]-3-[2-(trifluoromethoxy)phenyl]-1,2,4-oxadiazole] | 8 | 2 | > 30000

These reach a lower Ki (S1P1 [1]). Values come first.

Ki (S1P1 [1]) [nM] | EC50 (S1P1 [2]) [nM] | EC50 (S1P3) [nM] | Structure (SMILES)
3 | 1 | 125 | COc1ccc(F)cc1-c1noc(-c2ccc(N3CCCCC3C)c(C(F)(F)F)c2)n1 (stereo not drawn) [Compound I63, 1-[4-[3-(5-fluoro-2-methoxyphenyl)-1,2,4-oxadiazol-5-yl]-2-(trifluoromethyl)phenyl]-2-methylpiperidine]
1 | 2 | 617 | COc1ccc(F)cc1-c1noc(-c2ccc(N3CCCCC3)c(C(F)(F)F)c2)n1 [Compound I60, 1-[4-[3-(5-fluoro-2-methoxyphenyl)-1,2,4-oxadiazol-5-yl]-2-(trifluoromethyl)phenyl]piperidine]
3 | 9 | 5490 | COc1ccccc1-c1noc(-c2ccc(-c3cscc3C)c(C)c2)n1 [Compound I25, 3-(2-methoxyphenyl)-5-[3-methyl-4-(4-methyl-3-thienyl)phenyl]-1,2,4-oxadiazole]
2 | 1 | > 20000 | COc1ccccc1-c1noc(-c2ccc(-c3cscc3C)c(C(F)(F)F)c2)n1 [Compound I57, 3-(2-methoxyphenyl)-5-[4-(4-methyl-3-thienyl)-3-(trifluoromethyl)phenyl]-1,2,4-oxadiazole]
4 | 2 | 92 | COc1ccc(F)cc1-c1noc(-c2ccc(-c3ccccc3C)c(CN(C)C)c2)n1 [Compound I78, 1-{4-[3-(5-fluoro-2-methoxyphenyl)-1,2,4-oxadiazol-5-yl]-2′-methylbiphenyl-2-yl}-N,N-dimethylmethanamine]
1 | 2 | 1700 | COc1ccc(F)cc1-c1noc(-c2ccc(N3CCCCC3C)c([N+](=O)[O-])c2)n1 (stereo not drawn) [Compound I32, 1-{4-[3-(5-fluoro-2-methoxyphenyl)-1,2,4-oxadiazol-5-yl]-2-nitrophenyl}-2-methylpiperidine]
